This note sets out measurements from PubChem BioAssay (NCI).

Test systems include CAKI-1 renal; K-562 leukemia; SW-620 colon; COLO 205 colon; SF-295 CNS; SNB-19 CNS; UACC-62 melanoma; EKVX NSCLC; UACC-257 melanoma; HT29 colon.
Common to all, as to assay: growth of human tumour cells (NCI), 48 h

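Where inhibition never reached the appropriate level, the endpoint shown equals the highest concentration tested. Otherwise, values were interpolated linearly from a five-concentration, 48-hour dose response in 96-well plates. Abbreviation: GI50, concentration required for 50% inhibition of growth. TGI: total growth inhibition.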

With `Oc1cccc2nc3cc(CN4CCOCC4)c(CN4CCOCC4)cc3nc12`, the TGI with CAKI-1 renal, in the assay on K-562 leukemia, in the assay on SW-620 colon, in the assay on COLO 205 colon, with SF-295 CNS and in the assay with SNB-19 CNS was greater than 100 µM each time. For the same molecule, the TGI in the assay on UACC-62 melanoma was 76.8 µM; in the assay with EKVX NSCLC, greater than 100 µM; in the assay on UACC-257 melanoma, greater than 100 µM; in the assay with HT29 colon, greater than 100 µM.
In the case of `C[C@@]1(CBr)C[C@@](C)(/C=C/Cl)[C@@H](Cl)C[C@H]1Cl`, the TGI stood at 31.7 µM in the assay with CAKI-1 renal; 25.3 µM with K-562 leukemia; 27.8 µM with SW-620 colon; 28.1 µM in the assay on COLO 205 colon; 26.8 µM in the assay on SF-295 CNS; 27.1 µM in the assay on SNB-19 CNS. Further, the TGI was 29.1 µM in the assay on UACC-62 melanoma, 33 µM with EKVX NSCLC, 24.2 µM with UACC-257 melanoma and 22.4 µM in the assay with HT29 colon.
Consider `COC(=O)C(C(=O)C(=O)Nc1ccc(C)cc1C)c1nc2ccc([N+](=O)[O-])cc2[nH]c1=O` (stereo not given), for which the TGI in the assay on CAKI-1 renal, in the assay with K-562 leukemia, in the assay on SW-620 colon, in the assay on COLO 205 colon, in the assay with SF-295 CNS and in the assay with SNB-19 CNS was greater than 100 µM in each case. In addition, the TGI in the assay on UACC-62 melanoma, with EKVX NSCLC, in the assay on UACC-257 melanoma and in the assay with HT29 colon was greater than 100 µM in each case.
As to `COC(=O)NN=C1C(C)(C)C(=NNC(=O)OC)C1(C)C`, the TGI with CAKI-1 renal was greater than 100 µM; with K-562 leukemia, greater than 100 µM; in the assay with SW-620 colon, greater than 100 µM; in the assay with COLO 205 colon, greater than 56 µM; with SF-295 CNS, greater than 100 µM; in the assay on SNB-19 CNS, greater than 100 µM. Further, the TGI in the assay on UACC-62 melanoma was greater than 100 µM; with EKVX NSCLC, greater than 100 µM; with UACC-257 melanoma, greater than 100 µM; in the assay on HT29 colon, greater than 53.6 µM.
Consider `CCCCCCCCCCC(CN(CC)CC)C(O)c1ccccc1` (stereo not given), for which the GI50 in the assay on CAKI-1 renal was 1.51 µM; in the assay on K-562 leukemia, 2.03 µM; in the assay on SW-620 colon, 1.8 µM; in the assay on COLO 205 colon it was 1.81 µM; in the assay on SF-295 CNS, 1.84 µM; with SNB-19 CNS, 1.86 µM. For the same molecule, the GI50 in the assay on UACC-62 melanoma is 1.78 µM; in the assay with EKVX NSCLC, 1.56 µM; in the assay on UACC-257 melanoma, 2.64 µM; with HT29 colon it was 1.76 µM. Moreover, the TGI in the assay on CAKI-1 renal stood at 2.92 µM; in the assay on K-562 leukemia, 4.67 µM; in the assay on SW-620 colon, 3.43 µM; in the assay with COLO 205 colon, 3.7 µM; with SF-295 CNS, 3.48 µM; with SNB-19 CNS, 3.77 µM. For the same molecule, the TGI with UACC-62 melanoma is 3.46 µM; with EKVX NSCLC, 3.74 µM; in the assay on UACC-257 melanoma, 5.78 µM; in the assay on HT29 colon, 3.81 µM.
On to `COC(=O)c1cccc2c1Oc1ccccc1S2`, for which the TGI with CAKI-1 renal is 65.1 µM; in the assay on K-562 leukemia, greater than 100 µM; in the assay with SW-620 colon it was greater than 100 µM; in the assay on COLO 205 colon, 79.4 µM; in the assay on SF-295 CNS it was greater than 100 µM; with SNB-19 CNS, greater than 100 µM. The TGI with UACC-62 melanoma was greater than 100 µM; with EKVX NSCLC it was greater than 100 µM; in the assay with UACC-257 melanoma, greater than 100 µM; in the assay with HT29 colon, 75.2 µM.
For `NCCCn1c2c(c3ccc([N+](=O)[O-])cc3c1=O)C(=O)c1cc(Cl)ccc1-2`, the GI50 with CAKI-1 renal, in the assay on K-562 leukemia, in the assay with SW-620 colon, in the assay with COLO 205 colon, with SF-295 CNS and in the assay on SNB-19 CNS was less than 0.01 µM in each case. Also, the GI50 is less than 0.01 µM in the assay on UACC-62 melanoma, 0.0241 µM in the assay with EKVX NSCLC, 0.0526 µM in the assay on UACC-257 melanoma and less than 0.01 µM with HT29 colon. The TGI was determined as 0.317 µM in the assay with CAKI-1 renal; 0.0411 µM in the assay with K-562 leukemia; 0.213 µM with SW-620 colon; 0.313 µM with COLO 205 colon; 1.37 µM with SF-295 CNS; 0.227 µM in the assay with SNB-19 CNS. The TGI stood at 0.0696 µM with UACC-62 melanoma, 0.189 µM in the assay on EKVX NSCLC, 1.31 µM in the assay with UACC-257 melanoma and 0.225 µM in the assay with HT29 colon.
Turning to `NC(N)=N/N=C(/c1ccccc1)c1ccc(O)cc1O`, the TGI with CAKI-1 renal was greater than 100 µM; in the assay with K-562 leukemia, greater than 100 µM; in the assay on SW-620 colon, greater than 100 µM; in the assay with COLO 205 colon, 33.2 µM; with SF-295 CNS, greater than 100 µM; in the assay with SNB-19 CNS it was greater than 100 µM. For the same molecule, the TGI with UACC-62 melanoma was greater than 100 µM; with EKVX NSCLC it was 64.7 µM; in the assay with UACC-257 melanoma, greater than 100 µM; in the assay on HT29 colon it was 39.2 µM.
Consider `O=C(Nc1ccc([N+](=O)[O-])cc1)c1cc2ccccc2cc1O`, for which the GI50 is 0.26 µM in the assay with CAKI-1 renal; 0.347 µM in the assay on K-562 leukemia; 0.477 µM with SW-620 colon; 2.47 µM in the assay with COLO 205 colon; 1.15 µM in the assay on SF-295 CNS; 0.405 µM with SNB-19 CNS. Further, the GI50 in the assay on UACC-62 melanoma is 0.336 µM; in the assay with EKVX NSCLC, 0.322 µM; in the assay on UACC-257 melanoma it was 0.313 µM; in the assay with HT29 colon, 3.52 µM. The TGI in the assay with CAKI-1 renal is 0.955 µM; in the assay with K-562 leukemia it was greater than 100 µM; with SW-620 colon it was greater than 27.5 µM; with COLO 205 colon, 6.41 µM; in the assay on SF-295 CNS, 3.17 µM; in the assay with SNB-19 CNS it was 27.8 µM. The TGI is 1.45 µM with UACC-62 melanoma, 3 µM in the assay on EKVX NSCLC, 1.48 µM in the assay on UACC-257 melanoma and greater than 29.8 µM in the assay on HT29 colon.
Take `C[C@@H]1CCC2[C@@H](C)[C@H](OC(=O)CCC(=O)NCCNC(=O)Cc3cc(=O)oc4cc(N(C)C)ccc34)O[C@@H]3O[C@]4(C)CC[C@@H]1C23OO4` (stereo not given in full): the GI50 with CAKI-1 renal is 2.64 µM; in the assay on K-562 leukemia, 0.348 µM; in the assay with SW-620 colon, 0.457 µM; in the assay on COLO 205 colon it was 2.62 µM; in the assay on SF-295 CNS, 2.04 µM; in the assay with SNB-19 CNS, 10.7 µM. For the same molecule, the GI50 was 0.711 µM in the assay on UACC-62 melanoma, 0.645 µM in the assay on EKVX NSCLC, 4.04 µM in the assay on UACC-257 melanoma and 1.05 µM in the assay on HT29 colon. Besides, the TGI was greater than 25.6 µM in the assay on CAKI-1 renal; 13.8 µM in the assay on K-562 leukemia; 20.8 µM in the assay on SW-620 colon; 15.2 µM in the assay on COLO 205 colon; greater than 100 µM in the assay with SF-295 CNS; greater than 100 µM with SNB-19 CNS. Further, the TGI with UACC-62 melanoma was greater than 91 µM; in the assay with EKVX NSCLC it was 9.47 µM; with UACC-257 melanoma, greater than 100 µM; with HT29 colon, 19.6 µM.
Turning to `CC1(C)CC(O)CCCCCCOc2c(CN)cccc2NC(=O)c2nc(cnc2N)-c2ccc(cc2)S1(=O)=O` (stereo not given), the GI50 is 1.15 µM in the assay on CAKI-1 renal; 0.0538 µM in the assay on K-562 leukemia; 0.629 µM in the assay with SW-620 colon; 0.394 µM with COLO 205 colon; 1.49 µM in the assay on SF-295 CNS; 1.66 µM in the assay with SNB-19 CNS. Further, the GI50 with UACC-62 melanoma was 1.67 µM; in the assay with EKVX NSCLC, 1.93 µM; in the assay on UACC-257 melanoma it was 1.52 µM; in the assay on HT29 colon, 0.309 µM. Also, the TGI in the assay with CAKI-1 renal came to 2.6 µM; with K-562 leukemia, 2.69 µM; in the assay on SW-620 colon it was 2.36 µM; in the assay with COLO 205 colon, 2.08 µM; in the assay on SF-295 CNS, 3.02 µM; in the assay with SNB-19 CNS it was 4.46 µM. The TGI with UACC-62 melanoma was determined as 3.3 µM; in the assay on EKVX NSCLC, 5.78 µM; with UACC-257 melanoma it was 3.4 µM; in the assay on HT29 colon, 3.75 µM.
Consider `C=CC[C@@]1(C#N)C[C@H](C[C@]2(C#N)C[C@H](CCl)OC(C)(C)O2)OC(C)(C)O1`, for which the TGI in the assay on CAKI-1 renal, in the assay with K-562 leukemia, in the assay on SW-620 colon, in the assay on COLO 205 colon, with SF-295 CNS and in the assay with SNB-19 CNS was greater than 100 µM each time. The TGI with UACC-62 melanoma, in the assay on EKVX NSCLC, in the assay with UACC-257 melanoma and in the assay on HT29 colon was greater than 100 µM each time.
`CCCCCC/C=C/CCCCCCCc1cccc(O)c1C(=O)O`: the TGI with CAKI-1 renal, in the assay with K-562 leukemia, with SW-620 colon, in the assay on COLO 205 colon, in the assay on SF-295 CNS and with SNB-19 CNS was greater than 100 µM each time. The TGI with UACC-62 melanoma, in the assay on EKVX NSCLC, in the assay with UACC-257 melanoma and in the assay on HT29 colon was greater than 100 µM throughout.
Regarding `CCC(C)c1cnc(CC(C)C)c(=O)[nH]1` (stereo not given), the TGI in the assay on CAKI-1 renal, with K-562 leukemia, in the assay with SW-620 colon, in the assay with COLO 205 colon, in the assay on SF-295 CNS and in the assay on SNB-19 CNS was greater than 100 µM in each case. The TGI in the assay on UACC-62 melanoma, in the assay with EKVX NSCLC, in the assay on UACC-257 melanoma and in the assay with HT29 colon was greater than 100 µM throughout.
Regarding `Oc1oc(-c2ccccc2)nc1/C=C1/C=NN=N1`, the TGI in the assay with CAKI-1 renal, in the assay on K-562 leukemia, in the assay on SW-620 colon, in the assay on COLO 205 colon, with SF-295 CNS and in the assay on SNB-19 CNS was greater than 100 µM each time. The TGI with UACC-62 melanoma, in the assay with EKVX NSCLC, with UACC-257 melanoma and in the assay on HT29 colon was greater than 100 µM in each case.
